Experimental data taken from patent US20140302556A1, “CONTROLLING O-GLYCOSYLATION IN LOWER EUKARYOTES” (priority 2011, published 2014).

Legend:
[1] = tested on: un-mutagenized YGLY19376 parent strain; experiment: Growth on agar plates containing PMT inhibitor; format: cell-based, Pichia pastoris; settings: agar plate
Protocol: (§1) UV mutagenesis was performed as described by Winston (Curr. Protoc. Mol. Biol. 82:13.3B.1-13.3B.5 (2008)). Briefly, Pichia pastoris strain YGLY19376 (GFI5.0, pmt4Δ, expressing a recombinant IgG1) was grown in 40 mL YSD liquid medium over night at 24° C. Upon reaching an OD600 of five, a 10 mL aliquot of culture was transferred into an empty 100 mm sterile Petri dish, and treated, with the lid off, with 12 mJ/cm^2 of UV irradiation. After the UV treatment, the Petri dish was immediately covered with aluminum foil (to prevent photo-induced DNA repair). The mutagenized cells were allowed to recover at 24° C. for three hours in the dark. Two mL of the recovered YGLY19376 was then centrifuged at 2,000 rpm for five minutes. The cell pellet was then re-suspended in 400 μL 2% BMGY media and subsequently plated onto YSD agar plates containing 2 μg/mL or 4 μg/mL PMTi-4 PMT inhibitor (Example 4 compound of U.S. Published Application No. 20110076721 having the structure

[2] = tested on: PMTi-4-resistant mutant strain YGLY17156; experiment: 1 L DasGip MeOH fed-batch fermentation with PMTi-4 (lysis, WCW, IgG1 titer, glycans); format: cell-based, Pichia pastoris
Protocol: (§2) Fed-batch fermentations, IgG1 purifications, characterization of N- and O-glycan profiles as well as all other analytical assays, were performed essentially as previously described (Barnard et al., J. Ind. Microbiol. Biotechnol. 37(9): 961-71 (2010); Potgieter et al., J. Biotechnol. 139(4):318-25 (2009)).
(§3) Both PMT inhibitor-resistant mutant strains (YGLY17156 and YGLY17157), as well as the non-mutagenized parent strain YGLY19376 were grown in 1 L DasGip fermentors using a standard MeOH fed-batch fermentation protocol (See for example, Potgieter et al., J. Biotechnol. 139(4): 318-25 (2009) and Hopkins et al., Glycobiol. August 12. [Epub ahead of print] PubMed PMID: 21840970 (2011)).
(§4) The robustness of the strains was determined by examining the fermentation cell cultures under microscope. Depending on the proportion of cell debris, a lysis-score was assigned from 0.5 to 5, with 5 being the worst lysis.
(§5) The inoculum seed flasks were inoculated from yeast patches (isolated from a single colony) on agar plates into 0.1 L of 4% BSGY in a 0.5-L baffled flask. Seed flasks were grown at 180 rpm and 24° C. (Innova 44, New Brunswick Scientific) for 48 hours. Cultivations were done in 1 L (fedbatch-pro, DASGIP BioTools) bioreactors. Vessels were charged with 0.54 L of 0.22 μm filtered 4% BSGY media and autoclaved at 121° C. for 45 minutes. After sterilization and cooling; the aeration, agitation and temperatures were set to 0.7 vvm, 400 rpm and 24° C. respectively. The pH was adjusted to and controlled at 6.5 using 30% ammonium hydroxide. Inoculation of a prepared bioreactor occurred aseptically with 60 mL from a seed flask. Agitation was ramped to maintain 20% dissolved oxygen (DO) saturation. After the initial glycerol charge was consumed, denoted by a sharp increase in the dissolved oxygen, a 50% w/w glycerol solution containing 5 mg/L biotin and 32.3 mg/L PMTi4 was triggered to feed at 3.68 mL/hr for eight hours. During the glycerol fed-batch phase 0.375 mL of PTM2 salts were injected manually. Completion of the glycerol fed-batch was followed by a 0.5 hour starvation period and initiation of the induction phase. A continuous feed of a 50% v/v methanol solution containing 2.5 mg/L biotin and 6.25 mL/L PTM2 salts was started at a flat rate of 2.16 mL/hour. Injections of 0.25 mL of 1.9 mg/mL PMTi-4 (in methanol) were added after each 24 hours of induction. In general, individual fermentations were harvested within 36-110 hours of induction. The culture broth was clarified by centrifugation (Sorvall Evolution RC, Thermo Scientific) at 8500 rpm for 40 min and the resulting supernatant was submitted for purification.

[3] = tested on: PMTi-4-resistant mutant strain YGLY17157; experiment: as above; format: cell-based, Pichia pastoris
Protocol: as §2, §3, §4, §5

[4] = tested on: Pichia pastoris mutant strain YGLY17156; experiment: Growth on YSD agar plates containing PMTi-4; format: cell-based; settings: agar plate, 24° C.
[5] = tested on: Pichia pastoris mutant strain YGLY17157; experiment: Growth on YSD agar plates containing PMTi-4; format: cell-based; settings: agar plate, 24° C.
Protocol: as §1
After seven days incubation at 24° C., colonies were picked and re-streaked onto fresh PMTi-4-containing plates at the above concentrations.

[6] = tested on: non-mutagenized parent strain YGLY19376; experiment: 1 L DasGip MeOH fed-batch fermentation with PMTi-4 (lysis, IgG1 titer, glycans); format: cell-based, Pichia pastoris
Protocol: as §2, §3, §4
The inoculum seed flasks were inoculated from yeast patches (isolated from a single colony) on agar plates into 0.1 L of 4% BSGY in a 0.5-L baffled flask. Seed flasks were grown at 180 rpm and 24° C. (Innova 44, New Brunswick Scientific) for 48 hours. Cultivations were done in 1 L (fedbatch-pro, DASGIP BioTools) bioreactors. Vessels were charged with 0.54 L of 0.22 μm filtered 4% BSGY media and autoclaved at 121° C. for 45 minutes. […]

Structure (SMILES): CC(C)COCC(Oc1cc(/C=C2\SC(=S)N(CC(=O)O)C2=O)ccc1OCCc1ccc(F)cc1)c1ccccc1 (stereo not drawn) [PMTi-4]
- PMT inhibitor concentration at which strain failed to grow [1]: ≤ 0.1 µg/mL
- O-glycan Occupancy (mannitol/protein) ([2]; IgG1): 2.4 mol/mol
- Lysis at 24° C. Day 1 ([2]; lysis-score 0.5 to 5, 5 worst): 0.5
- Lysis at 24° C. Day 3 ([2]; lysis-score 0.5 to 5, 5 worst): 1
- Lysis at 24° C. Day 4 ([2]; lysis-score 0.5 to 5, 5 worst): 1.5
- WCW Day 4 ([2]; wet cell weight): 236
- O-glycan Occupancy (mannitol/protein) ([3]; IgG1): 0.6 mol/mol
- Lysis at 24° C. Day 1 ([3]; lysis-score 0.5 to 5, 5 worst): 0.5
- Lysis at 24° C. Day 3 ([3]; lysis-score 0.5 to 5, 5 worst): 1
- Lysis at 24° C. Day 4 ([3]; lysis-score 0.5 to 5, 5 worst): 1
- WCW Day 4 ([3]; wet cell weight): 303
- PMTi-4 concentration at which robust growth is exhibited [4]: at least 4 μg/mL
- PMTi-resistance level [5]: at least 1 μg/mL
- O-glycan Occupancy (mannitol/protein) ([6]; IgG1): 1.0 mol/mol
- Lysis at 24° C. Day 2 ([6]; lysis-score 0.5 to 5, 5 worst): 3
